From patent US7534809B2, “Phospho-indoles as HIV inhibitors” (priority 2004, dated 2009)
In brackets after ≈: the same amount, converted by molar mass. Read-outs that look alike come from different tables or passages of the source.

Columns and labels:
[1] = pH dependent aqueous solubility, shake-flask method; format: physicochemical; conditions: aqueous solution, thermodynamic from solid, saturated concentration 1 mM
Description: The aqueous solubility of each compound was determined by the conventional shake-flask method at a saturated concentration of 1 mM. The flask (vial) was shaken for 3 hrs at ambient temperature, and then centrifuged. The supernatant was analyzed by HPLC with UV detection for solubility determination. In general, a higher aqueous solubility is more desirable for drug candidates.

[2] = Human plasma protein binding, equilibrium dialysis; format: in vitro ADME; conditions: pooled human plasma, 37° C., about 6 hours, 1 μM drug, read-out: Protein binding (human plasma) % Free
Description: The human plasma protein binding was determined using the Equilibrium Dialysis method. Dialysis was conducted with pooled human plasma at 37° C. for approximately 6 hours at a drug concentration of 1 μM. At the end of the dialysis, buffer samples from the buffer-side of the dialysis cell were collected and analyzed by LC/MS/MS for free drug concentration. For NNRTIs, a lower protein binding is more desirable.

CYP3A4 = molecular target: T1, CYP3A4 (Homo sapiens, UniProt P08684); test: CYP450 inhibition, CYP3A4/BFC screening kit; format: in vitro ADME
T1 construct: purchased BD Biosciences
Excerpt: (§1) In vitro CYP450 inhibition screening allows for the prediction of potential drug-drug interactions. […] Potency and rank order of the inhibition can be assessed by determination of the IC50 values for a particular isozyme.
(§2) CYP3A4 inhibition was screened using the CYP3A4/BFC high throughput inhibitor screening kit (BD Biosciences), CYP2D6 inhibition was screened using the CYP2D6/AMMC high throughput inhibitor screening kit (BD Biosciences), and CYP2C9 inhibition was screened using the P450-Glo™ Assay kit (Promega).

CYP2D6 = molecular target: T2, CYP2D6 (Homo sapiens, UniProt P10635); test: CYP450 inhibition, CYP2D6/AMMC screening kit; format: in vitro ADME
T2 construct: purchased BD Biosciences
Excerpt: as §1, §2

CYP2C9 = molecular target: T3, CYP2C9 (Homo sapiens, UniProt P11712); test: CYP450 inhibition, CYP2C9 P450-Glo assay kit; format: in vitro ADME
T3 construct: purchased Promega
Excerpt: as §1, §2

[3] = Metabolic stability in human liver microsomes; format: in vitro ADME; conditions: 10 μM, 1 mg/mL microsomes, 37° C., 2 hrs
Excerpt: (§3) The metabolic stability assay is to evaluate the stability of test compound in biological matrices. Data are useful in terms of understanding and predicting the elimination mechanisms of the test compound. CYP450-dependent metabolism of drugs can also vary widely from one species to another. Evaluating in vitro metabolism of a drug by liver microsomes from multiple species allows the comparison of metabolism in animal species to that of humans. This can help identify the most relevant animal model for PK and toxicology studies. The metabolic stability of a test compound was evaluated in vitro in liver microsomes of the rat, dog, monkey, and human. 10 μM of the test compound was pre-incubated for 5 min at 37° C. with 1 mg/mL liver microsomes in 0.1M Tris buffer, pH 7.4 containing 5 mM MgCl2 and 0.1 mM EDTA. Following pre-incubation, NADPH (final concentration of 3 mM) was added to start the reaction and samples incubated for 0 and 1 or 2 hours. After terminating the reaction, the supernatant was analyzed by HPLC-UV or LC/MS/MS for the disappearance of the parent and formation of metabolite(s). The %parent remaining was the peak area ratio of the 1 or 2 hr sample to the time 0 sample. In general, less metabolism (higher % parent values) is more desirable.

[4] = Metabolic stability in rat liver microsomes; format: in vitro ADME; conditions: 10 μM, 1 mg/mL microsomes, 37° C., 2 hrs
Excerpt: as §3

[5] = Metabolic stability in dog liver microsomes; format: in vitro ADME; conditions: 10 μM, 1 mg/mL microsomes, 37° C., 2 hrs
Excerpt: as §3

[6] = Metabolic stability in monkey liver microsomes; format: in vitro ADME; conditions: 10 μM, 1 mg/mL microsomes, 37° C., 2 hrs
Excerpt: as §3

[7] = In vitro metabolism in liver microsomes, metabolic pathway; format: in vitro ADME, rat, dog, monkey, and human; conditions: LC/MS/MS metabolite profiling
Description: Phase I biotransformation of a test compound is evaluated in this assay. Samples from the metabolic stability experiment were analyzed by LC/MS/MS for metabolite profiling and identification. Structures of metabolites were elucidated based on multiple MS/MS experiments such as full scan, neutral loss scan, and product ion scan. Metabolic pathways were then postulated based on the structures of major metabolites. For compounds from the phosphinate series, N-oxidation of the terminal pyridine ring is the predominant pathway, followed by the oxidation of the dimethyl-phenyl group, where the methyl group(s) is hydroxylated, further oxidized to an aldehyde, and finally to a carboxylic acid. The elucidation of metabolic pathways is important in terms of understanding the elimination mechanism of a test compound and assisting the design of new molecules with improved DM-PK profiles.

[8] = PK and oral bioavailability in the rat; format: in vivo, Sprague-Dawley rats; conditions: for half-life: PEG400, read-out: T½ (converted)
Description: (§4) The pharmacokinetics of a test compound was evaluated in Sprague-Dawley rats and Beagle dogs. A typical PK study involved dosing of 2 to 3 animals via a single IV bolus injection at 1 mg/kg and another 3 animals via a single oral gavage at 5 mg/kg. Blood samples were collected at various time points over a 24-hr period. Plasma was separated and analyzed for test compound and its metabolite(s) by LC/MS/MS. PK parameters were calculated from the plasma concentration—time profile using a noncompartmental method. Oral bioavailability (F) was calculated based on dose-normalized AUC values from oral and IV administration. Higher oral bioavailability values are better.

[9] = PK and oral bioavailability in the dog; format: in vivo, Beagle dogs
Description: as §4

[10] = tested on: mutant forms such as K103N/M184V/NAMS and K103N/Y181C/M184V/NAMS; test: MDRC4 and CNDO cell-based assays versus other mutant forms; design: species or system HIV; conditions: Human immunodeficiency virus 1, read-out: EC50 values
[11] = Sprague-Dawley, plasma, IV, 1.0 mg/kg, PEG400
[12] = Sprague-Dawley, plasma, PO, 5.0 mg/kg, PEG400
[13] = Beagle, plasma, IV, 1.0 mg/kg, PEG400
[14] = Beagle, plasma, PO, 5.0 mg/kg, 0.5% MC

T3 sequence (P11712 whole entry): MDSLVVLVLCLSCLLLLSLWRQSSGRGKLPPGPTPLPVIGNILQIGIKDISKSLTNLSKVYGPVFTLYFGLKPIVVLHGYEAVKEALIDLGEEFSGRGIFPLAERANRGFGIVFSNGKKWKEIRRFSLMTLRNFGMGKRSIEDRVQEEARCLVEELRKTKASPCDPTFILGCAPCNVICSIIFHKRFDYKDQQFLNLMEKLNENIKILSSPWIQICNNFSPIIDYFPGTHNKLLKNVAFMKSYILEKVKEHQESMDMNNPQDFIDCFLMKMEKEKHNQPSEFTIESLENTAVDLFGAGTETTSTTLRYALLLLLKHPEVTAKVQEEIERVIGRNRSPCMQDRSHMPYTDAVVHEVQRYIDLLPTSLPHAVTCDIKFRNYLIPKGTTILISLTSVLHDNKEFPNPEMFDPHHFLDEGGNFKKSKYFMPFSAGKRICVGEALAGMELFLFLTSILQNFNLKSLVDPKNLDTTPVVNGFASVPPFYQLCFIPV
T2 sequence (P10635 whole entry): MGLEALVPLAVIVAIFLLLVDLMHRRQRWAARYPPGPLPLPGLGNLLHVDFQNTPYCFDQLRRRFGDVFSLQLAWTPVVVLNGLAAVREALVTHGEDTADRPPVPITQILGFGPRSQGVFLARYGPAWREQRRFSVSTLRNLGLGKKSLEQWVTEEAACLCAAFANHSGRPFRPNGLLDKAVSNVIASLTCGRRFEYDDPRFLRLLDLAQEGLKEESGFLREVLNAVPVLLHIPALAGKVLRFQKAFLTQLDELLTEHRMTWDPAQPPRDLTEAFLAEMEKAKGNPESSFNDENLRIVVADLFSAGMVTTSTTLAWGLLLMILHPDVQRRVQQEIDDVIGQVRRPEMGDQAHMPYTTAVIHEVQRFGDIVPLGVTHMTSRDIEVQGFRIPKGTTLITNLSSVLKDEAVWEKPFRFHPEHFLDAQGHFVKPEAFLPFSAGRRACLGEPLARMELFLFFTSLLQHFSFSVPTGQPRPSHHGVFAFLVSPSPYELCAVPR
T1 sequence (P08684 whole entry): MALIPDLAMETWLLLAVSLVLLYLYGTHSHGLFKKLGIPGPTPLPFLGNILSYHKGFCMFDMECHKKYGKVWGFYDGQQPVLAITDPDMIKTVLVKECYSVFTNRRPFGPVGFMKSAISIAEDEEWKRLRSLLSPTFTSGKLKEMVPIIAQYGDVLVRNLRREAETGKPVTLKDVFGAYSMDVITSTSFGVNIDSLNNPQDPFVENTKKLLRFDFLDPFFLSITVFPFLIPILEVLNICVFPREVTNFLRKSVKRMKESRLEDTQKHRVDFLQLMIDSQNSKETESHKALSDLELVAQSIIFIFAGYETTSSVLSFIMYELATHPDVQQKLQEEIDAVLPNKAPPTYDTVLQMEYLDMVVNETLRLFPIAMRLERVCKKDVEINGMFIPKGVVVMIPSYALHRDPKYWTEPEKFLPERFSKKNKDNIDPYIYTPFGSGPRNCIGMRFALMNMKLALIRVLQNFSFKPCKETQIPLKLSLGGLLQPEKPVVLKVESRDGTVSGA

COP(=O)(c1cc(C)cc(C)c1)c1c(C(=O)NCc2cc[n+]([O-])cc2)[nH]c2ccc(Cl)cc12 (stereo not drawn) [Compound D]
solubility at 3 h ([1]; pH 1, simulated gastric fluid, pH1, ambient temperature, read-out: Aqueous solubility pH1): 52 µM (≈ 25.2 µg/mL) | solubility at 3 h ([1]; pH 3, aqueous buffer, pH3, ambient temperature, read-out: Aqueous solubility pH3): 74.2 µM (≈ 35.9 µg/mL) | solubility at 3 h ([1]; pH 7, aqueous buffer, pH7, ambient temperature, read-out: Aqueous solubility pH7): 50.6 µM (≈ 24.5 µg/mL) | solubility at 3 h ([1]; pH 9, aqueous buffer, pH9, ambient temperature, read-out: Aqueous solubility pH9): 66.8 µM (≈ 32.3 µg/mL) | fraction unbound at 6 h, 1 μM [2]: 0.016 | IC50 (CYP3A4): 1.07 µM | IC50 (CYP2D6): > 10 µM | IC50 (CYP2C9): > 10 µM | Metabolic stability in liver microsomes % Parent after 2 hrs, Human [3]: 76% | Metabolic stability in liver microsomes % Parent after 2 hrs, Rat [4]: 1% | Metabolic stability in liver microsomes % Parent after 2 hrs, Dog [5]: 82% | Metabolic stability in liver microsomes % Parent after 2 hrs, Monkey [6]: 24% | Metabolic pathway (in vitro) [7]: Hydroxylation to CH3OH— to CHO— to COOH— | AUCinf/Dose ([8]; IV, 1.0 mg/kg, PEG400): 188.3 | CI ([8]; IV, 1.0 mg/kg, PEG400): 90.297 mL/min/kg | AUCinf/Dose ([8]; PO, 5.0 mg/kg, PEG400): 30.2 | F ([8]; PO, 5.0 mg/kg, PEG400, oral bioavailability): 16.0% | AUC(0-inf) [8, 11]: 188 ng·h/mL | AUC(0-t) [8, 11]: 174 ng·h/mL | Cmax [8, 11]: 166 ng/mL | half-life ([8]; Sprague-Dawley, plasma, IV, 1.0 mg/kg): 0.9 h | Vd ([8]; Sprague-Dawley, plasma, IV, 1.0 mg/kg, PEG400, read-out: Vss): 6.37 L/kg | AUC(0-inf) [8, 12]: 151 ng·h/mL | AUC(0-t) [8, 12]: 132 ng·h/mL | Cmax [8, 12]: 45 ng/mL | Tmax [8, 12]: 0.5 h | half-life ([8]; Sprague-Dawley, plasma, PO, 5.0 mg/kg): 2.2 h | AUC(0-inf) [9, 13]: 1220 ng·h/mL | AUC(0-t) [9, 13]: 1010 ng·h/mL | Cmax [9, 13]: 430 ng/mL | half-life ([9]; Beagle, plasma, IV, 1.0 mg/kg, PEG400, read-out: T½ (converted)): 3.2 h | Vd ([9]; Beagle, plasma, IV, 1.0 mg/kg, PEG400, read-out: Vss): 3.72 L/kg | AUC(0-inf) [9, 14]: 747 ng·h/mL | AUC(0-t) [9, 14]: 696 ng·h/mL | Cmax [9, 14]: 116 ng/mL | Tmax [9, 14]: 2.7 h | half-life ([9]; Beagle, plasma, PO, 5.0 mg/kg, 0.5% MC, read-out: T½ (converted)): 2.6 h | AUCinf/Dose ([9]; IV, 1.0 mg/kg, PEG400): 1220.5 | CI ([9]; IV, 1.0 mg/kg, PEG400): 13.7 mL/min/kg | AUCinf/Dose ([9]; PO, 5.0 mg/kg, 0.5% MC): 149.3 | F ([9]; PO, 5.0 mg/kg, 0.5% MC, oral bioavailability): 12.4%

CCOC(=O)c1c(P(=O)(OCC)c2ccccc2)c2cc(Cl)ccc2n1S(=O)(=O)c1ccccc1 (stereo not drawn) [Example 3, Ethyl 5-chloro-3-[ethoxy(phenyl)phosphoryl]-1-(phenylsulfonyl)-1H-indole-2-carboxylate]
EC50 [10]: 0.0013 to 0.447 µM
